Here are results for 39 compounds from patent publication US11504367B2, “Compounds and methods for treating oxalate-related diseases” (OxaluRx, Inc., priority 2019, dated 2022).

The assay has as its target recombinant full-length human hydroxyacid oxidase 1 (HAO1), the equivalents of hGOX (Homo sapiens (Human), UniProt Q9UJM8). As to the kind of experiment: In-vitro human glycolate oxidase (hGOX) assay (Amplex red fluorescence). Format: biochemical. Conditions: 6 nM recombinant human GO, 85 μM glycolate, 10 min preincubation. On the procedure: The in-vitro glycolate oxidase assay was performed using recombinant full-length human hydroxyacid oxidase 1 (HAO1), the equivalents of hGOX. […] Purified HAO1 was dissolved in assay buffer consisting of 10 mM NaCl, 110 mM KCl, 2 mM MgCl2, 50 mM HEPES (pH 7.4), and 0.01% Triton™ X-100.
The plates were incubated for 10 min at room temperature, at which point Amplex red reagent (50 μM) was added.
The fluorescence intensity signal was measured on a VariosKan LUX instrument using an excitation of 560 nm and an emission of 590 nm. The IC50 values were calculated using Graphpad Prism. The fluorescence signal of wells containing only DMSO was defined as 100% GO activity, while the fluorescence signal without the glycolate substrate was defined as 0% GO activity.

For orientation: pIC50 means −log10 of the IC50, conventionally taken in molar units.

pIC50: −log10 of the molar value. A value given as a limit tells only on which side of the number the result lay.

Sequence of recombinant full-length human hydroxyacid oxidase 1 (HAO1), the equivalents of hGOX (Q9UJM8 whole entry): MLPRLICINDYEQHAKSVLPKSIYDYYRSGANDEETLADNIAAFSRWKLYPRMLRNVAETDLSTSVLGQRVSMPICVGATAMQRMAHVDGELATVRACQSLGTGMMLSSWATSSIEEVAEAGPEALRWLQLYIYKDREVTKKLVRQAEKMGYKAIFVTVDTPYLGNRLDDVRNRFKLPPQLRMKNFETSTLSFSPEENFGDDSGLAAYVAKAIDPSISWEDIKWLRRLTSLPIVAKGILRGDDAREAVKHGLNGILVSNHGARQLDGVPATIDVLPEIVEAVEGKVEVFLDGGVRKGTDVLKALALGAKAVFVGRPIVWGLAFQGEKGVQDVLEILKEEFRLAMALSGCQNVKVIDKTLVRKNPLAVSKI

For the compound `CS(=O)(=O)c1ccc(C#Cc2cc(F)cc(Oc3[nH]nnc3C(=O)O)c2)cc1` [Example 274, 5-(3-Fluoro-5-(2-(4-(methylsulfonyl)phenyl)ethynyl)phenoxy)-1H-1,2,3-triazole-4-carboxylic Acid], the negative-log IC50 (pIC50) is 8.30.
Then `O=C(O)c1nn[nH]c1Oc1ccc(C#Cc2nccs2)cc1` [Example 341, 5-(4-(2-(Thiazol-2-yl)ethynyl)phenoxy)-1H-1,2,3-triazole-4-carboxylic Acid], with 7.55; and `Cn1cc(Oc2[nH]nnc2C(=O)O)cc(C#CCC2CC2)c1=O` [Example 368, 5-(5-(3-Cyclopropylprop-1-ynyl)-1,6-dihydro-1-methyl-6-oxopyridin-3-yloxy)-1H-1,2,3-triazole-4-carboxylic Acid], with less than 6.00; and `O=C(O)c1nonc1Oc1ccc(C#CCC2CC2)cc1` [Example 369, 4-(4-(3-Cyclopropylprop-1-ynyl)phenoxy)-1,2,5-oxadiazole-3-carboxylic Acid], with less than 6.00.
Then `CC(C)(O)C#Cc1ccc(Oc2[nH]nnc2C(=O)O)cc1` [Example 13, 5-(4-(3-Hydroxy-3-methylbut-1-ynyl)phenoxy)-1H-1,2,3-triazole-4-carboxylic Acid], with 6.36; and `O=C(O)c1nn[nH]c1Oc1ccc(C#CC2CCOCC2)cc1` [Example 40, 5-(4-(2-(Tetrahydro-2H-pyran-4-yl)ethynyl)phenoxy)-1H-1,2,3-triazole-4-carboxylic Acid], with 7.40.
Then `Cn1nccc1C#Cc1ccc(Oc2[nH]nnc2C(=O)O)cc1` [Example 321, 5-(4-(2-(1-Methyl-1H-pyrazol-5-yl)ethynyl)phenoxy)-1H-1,2,3-triazole-4-carboxylic Acid], with 8.30; and `COc1ccc(C#Cc2ccc(Oc3[nH]nnc3C(=O)O)cc2)cc1` [Example 280, 5-(4-(2-(4-Methoxyphenyl)ethynyl)phenoxy)-1H-1,2,3-triazole-4-carboxylic Acid], with 8.40; and `CC(C)(O)C#Cc1cccc(Oc2[nH]nnc2C(=O)O)c1` [Example 215, 5-(3-(3-Hydroxy-3-methylbut-1-ynyl)phenoxy)-1H-1,2,3-triazole-4-carboxylic Acid], with 7.32.
As to `O=C(O)c1nn[nH]c1Oc1cccc(C#Cc2ccncc2)c1` [Example 313, 5-(3-(2-(Pyridin-4-yl)ethynyl)phenoxy)-1H-1,2,3-triazole-4-carboxylic Acid], the pIC50 is 8.52.
Then `Cn1ccc(C#Cc2cccc(Oc3[nH]nnc3C(=O)O)c2)cc1=O` [Example 257, 4-(3-((1-Methyl-2-oxo-1,2-dihydropyridin-4-yl)ethynyl)phenoxy)-1H-1,2,3-triazole-5-carboxylic Acid], with 9.00; and `COc1cccc(C#Cc2ccc(Oc3[nH]nnc3C(=O)O)cc2)c1` [Example 286, 5-(4-(2-(3-Methoxyphenyl)ethynyl)phenoxy)-1H-1,2,3-triazole-4-carboxylic Acid], with 8.70.
Then `O=C(O)c1nn[nH]c1Nc1ccc(C#CCC2CC2)cc1` [Example 362, 5-(4-(3-Cyclopropylprop-1-ynyl)phenylamino)-1H-1,2,3-triazole-4-carboxylic Acid], with 6.64; and `CC#Cc1ccc(Oc2[nH]nnc2C(=O)O)cc1` [Example 5, 5-(4-(Prop-1-ynyl)phenoxy)-1H-1,2,3-triazole-4-carboxylic Acid], with 7.92.
Turning to `O=C(O)c1nn[nH]c1Oc1ccc(C#Cc2ccccc2)c(F)c1` [Example 146, 5-(3-Fluoro-4-(2-phenylethynyl)phenoxy)-1H-1,2,3-triazole-4-carboxylic Acid], the pIC50 is 9.00.
Then `O=C(O)c1nn[nH]c1Oc1cccc(C#CC2CCC3(CC2)OCCO3)c1` [Example 351, 5-(3-(1,4-Dioxaspiro[4.5]decan-8-ylethynyl)phenoxy)-1H-1,2,3-triazole-4-carboxylic Acid], with 7.70; and `O=C(O)c1nn[nH]c1Oc1ccc(C#CCc2ccccc2)cc1` [Example 348, 5-(4-(3-Phenylprop-1-ynyl)phenoxy)-1H-1,2,3-triazole-4-carboxylic Acid], with 8.30.
Then `O=C(O)c1nn[nH]c1Oc1ccc(C#Cc2ccncc2)cc1` [Example 310, 5-(4-(2-(Pyridin-4-yl)ethynyl)phenoxy)-1H-1,2,3-triazole-4-carboxylic Acid], with 8.40; and `CC(C)C#Cc1ccc(Oc2[nH]nnc2C(=O)O)cc1` [Example 9, 5-(4-(3-Methylbut-1-ynyl)phenoxy)-1H-1,2,3-triazole-4-carboxylic Acid], with 7.21; and `O=C(O)c1nn[nH]c1Oc1cccc(C#Cc2ccc(Cl)cc2)c1` [Example 292, 5-(3-(2-(4-Chlorophenyl)ethynyl)phenoxy)-1H-1,2,3-triazole-4-carboxylic Acid], with 8.70.
Then `N#Cc1cccc(C#Cc2ccc(Oc3[nH]nnc3C(=O)O)cc2F)c1` [Example 270, 5-(4-((3-Cyanophenyl)ethynyl)-3-fluorophenoxy)-1H-1,2,3-triazole-4-carboxylic Acid], with 9.00.
In the case of `O=C(O)c1nn[nH]c1Oc1ccc(F)c(C#Cc2ccccc2)c1` [Example 259, 5-(4-Fluoro-3-(2-phenylethynyl)phenoxy)-1H-1,2,3-triazole-4-carboxylic Acid], the pIC50 was 9.00.
For the compound `O=C(O)c1nn[nH]c1Oc1cccc(C#Cc2ncc[nH]2)c1` [Example 332, 5-(3-(2-(1H-Imidazol-2-yl)ethynyl)phenoxy)-1H-1,2,3-triazole-4-carboxylic Acid], the pIC50 is 8.15.
As to `O=C(O)c1nn[nH]c1Oc1ccc(C#CC2CCCCC2)cc1` [Example 36, 5-(4-(2-Cyclohexylethynyl)phenoxy)-1H-1,2,3-triazole-4-carboxylic Acid], the pIC50 was 8.05.
Then `O=C(O)c1nn[nH]c1Oc1ccc(C#Cc2ccccc2)cc1F` [Example 260, 5-(2-Fluoro-4-(2-phenylethynyl)phenoxy)-1H-1,2,3-triazole-4-carboxylic Acid], with 8.30.
Then `O=C(O)c1nn[nH]c1Oc1ccc(C#Cc2cn[nH]c2)cc1` [Example 178, 5-(4-(2-(1H-Pyrazol-4-yl)ethynyl)phenoxy)-1H-1,2,3-triazole-4-carboxylic Acid], with 8.22; and `CS(=O)(=O)c1ccc(C#Cc2ccc(Oc3[nH]nnc3C(=O)O)cc2F)cc1` [Example 272, 5-(3-Fluoro-4-(2-(4-(methylsulfonyl)phenyl)ethynyl)phenoxy)-1H-1,2,3-triazole-4-carboxylic Acid], with 8.70; and `CCOC(=O)c1c(Oc2ccc(C#CCC3CC3)cc2)n[nH]c1C` [Example 360, Ethyl 3-(4-(3-cyclopropylprop-1-ynyl)phenoxy)-5-methyl-1H-pyrazole-4-carboxylate], with less than 6.00.
In the case of `O=C(O)c1nn[nH]c1Oc1ccc(C#Cc2cccc3cn[nH]c23)cc1` [Example 323, 5-(4-(2-(1H-Indazol-7-yl)ethynyl)phenoxy)-1H-1,2,3-triazole-4-carboxylic Acid], the negative-log IC50 (pIC50) was 8.30.
In the case of `O=C(O)c1nn[nH]c1Oc1ccc(C#Cc2ccc(F)cc2)cc1` [Example 288, 5-(4-(2-(4-Fluorophenyl)ethynyl)phenoxy)-1H-1,2,3-triazole-4-carboxylic Acid] it was 9.00; in that of `O=C(O)c1nn[nH]c1Oc1ccc(C#CC(F)(F)F)cc1` [Example 335, 5-(4-(3,3,3-Trifluoroprop-1-ynyl)phenoxy)-1H-1,2,3-triazole-4-carboxylic Acid], 7.64.
In the case of `Cc1[nH]nc(Oc2ccc(C#CCC3CC3)cc2)c1C(=O)O` [Example 361, 3-(4-(3-Cyclopropylprop-1-ynyl)phenoxy)-5-methyl-1H-pyrazole-4-carboxylic Acid] it was less than 6.00; in that of `COc1cc(C#Cc2cccc(Oc3[nH]nnc3C(=O)O)c2)ccn1` [Example 285, 5-(3-(2-(2-Methoxypyridin-4-yl)ethynyl)phenoxy)-1H-1,2,3-triazole-4-carboxylic Acid], 8.52.
On to `O=C(O)c1nn[nH]c1Oc1ccc(C#Cc2ccccn2)cc1` [Example 308, 5-(4-(2-(Pyridin-2-yl)ethynyl)phenoxy)-1H-1,2,3-triazole-4-carboxylic Acid], for which the pIC50 is 8.00.
In the case of `Cn1ncc2c(C#Cc3ccc(Oc4[nH]nnc4C(=O)O)cc3)cccc21` [Example 314, 5-(4-(2-(1-Methyl-1H-indazol-4-yl)ethynyl)phenoxy)-1H-1,2,3-triazole-4-carboxylic Acid] it was 8.52.
As for `O=C(O)c1nn[nH]c1Oc1ccc(C#Cc2ccc(Cl)cc2)cc1` [Example 290, 5-(4-(2-(4-Chlorophenyl)ethynyl)phenoxy)-1H-1,2,3-triazole-4-carboxylic Acid], the pIC50 is 9.40.
In the case of `O=C(O)c1nn[nH]c1Oc1ccc(C(F)(F)F)c(C#Cc2ccccc2)c1` [Example 263, 5-(4-(Trifluoromethyl)-3-(2-phenylethynyl)phenoxy)-1H-1,2,3-triazole-4-carboxylic Acid], the pIC50 was 8.70.
Then `Cn1cc(C#Cc2cccc(Oc3[nH]nnc3C(=O)O)c2)ccc1=O` [Example 209, 4-(3-((1-Methyl-6-oxo-1,6-dihydropyridin-3-yl)ethynyl)phenoxy)-1H-1,2,3-triazole-5-carboxylic Acid], with 8.10; and `O=C(O)c1nn[nH]c1Oc1ccc(C#Cc2cccc(Cl)c2)cc1` [Example 291, 5-(4-(2-(3-Chlorophenyl)ethynyl)phenoxy)-1H-1,2,3-triazole-4-carboxylic Acid], with 9.52.
